Experiments:
[1] = target: T1, recombinant PfSTART1(WT) (I149-V394) (Plasmodium falciparum, UniProt Q8I298); test: Isothermal titration calorimetry; type: binding; settings: for Differential Power DP_Y / ΔH NDH_Y: PfSTART(WT), ITC replicate data
T1 construct: START domain alone (I149-V394 from PF3D7_0104200); 8xHis tag (N); TEV protease cleavage site (N); made in house; host or cells: Sf21 insect cells (baculovirus)
Excerpt: Codon optimised (Spodoptera frugiperda, Sf) START domain alone (I149-V394 from PF3D7_0104200) was synthesised by Integrated DNA Technologies and cloned into a modified baculovirus transfer vector (pAcGP67-A) with a N-terminal GP67-signal sequence, 8xHis tag, and TEV protease cleavage site. Recombinant baculovirus was generated via the flashBACTM Baculovirus Expression System using Sf21 cells (Life Technologies), amplified to reach a third passage viral stock, and 1.5% used to infect Sf21 for protein expression. After incubation for three days at 28 °C, media containing secreted protein was harvested by centrifugation and supplemented with 50 mM Tris pH 7.5, 20 mM MgCl2, 100 mM NaCl, and 10-20 mM imidazole. The supplemented protein sample was purified by nickel affinity chromatography (HisTrap Excel 5 mL, Cytiva), and eluted with 20 mM Tris pH 7.5, 500 mM NaCl, 300-500 mM imidazole. Eluted fractions were further purified using size-exclusion chromatography (Superdex S75 16/600 or Superdex 10/300, Cytiva) with the column pre-equilibrated with 20 mM HEPES pH 7.5, 150 mM NaCl, and peak-containing fractions concentrated and stored at -80 °C until required. If required, prior to ITC, a second size-exclusion chromatography step was performed to remove soluble aggregates.
ITC experiments were performed on a MicroCal PEAQ-ITC calorimeter at 25 °C, with a stirring speed of 750 rpm and a reference power of 5 μcal/sec. 500 μM M-833 series inhibitor solutions were diluted to 10 μM in 50 mM NaPO4^-3 (pH 7.4), 150 mM NaCl with a final DMSO concentration of 2% (v/v) (cell sample). PfSTART1 protein was dialysed extensively against 50 mM NaPO4^-3 (pH 7.4), 150 mM NaCl, before diluting to 90 μM in the same buffer with 2% (v/v) DMSO (syringe sample). The first injection was 0.4 μL over a 0.8 s duration, and the remaining 19 injections were 2 μL of 4 s duration, with 150 s injection spacing. Data were collected and analysed using the PEAQ-ITC software (MicroCal) and fit by a single site binding model. A fitted offset (constant control heat) was also applied to the integrated heat.

[2] = system: PopD-D7 M-833 resistant clone (PfSTART1 N309K); test: Growth inhibition assay (72 h, LDH activity); type: cell-based, Plasmodium falciparum; settings: for EC50: Plasmodium falciparum, 72 h, read-out: EC50; for EC50 / Fold change compared to 3D7: Supplementary Table 1; for EC50 / resistance of the line compared with 3D7: PopD-D7 (N309K); for resistance of the line compared with 3D7: Fig 4B; for Fold change compared to 3D7: EC50 on PopD-D7 vs 3D7
Description: The drug was then removed, and parasites were allowed to recover. Another cycle of drug treatment (3 μM M-833) was then resumed. The resistant lines were cloned out by limiting dilution (diluting the culture into a 96-well plate to achieve an average of ~0.3 parasites per well), prior to growth inhibition assays and genomic DNA (gDNA) extraction (DNeasy Blood and Tissue kit (Qiagen)[18].
Parasite growth assays with inhibitory compounds were performed as per[11] and are fully described in the Supplementary Information. […]
Growth inhibition assays. Synchronised ring-stage parasites (0.3-0.6% parasitemia, 2% haematocrit) were grown for 72 h in a serial-dilution of the compound under […]
and compound 4. Note that M-833 was first purchased from MolPort (MolPort -002-267-916) then made in-house at WEHI: the differences observed in EC50s across experiments are attributed to the different batches of M -833. For some experiments, 0, 0.25 or 2.5 mM of glucosamine (GlcN) was also added. Experiments were set up in technical duplicates or triplicates. Following a freeze -thaw cycle, lactate dehydrogenase (LDH) activity was assessed as an indicator of parasite growt h 5. 30 μL of parasite culture was incubated for 30 min in the dark with 75 μL Malstat mixture (0.1 M Tris pH 9.0, 20 g/L lactic acid, pH 7.5, 0.2% Triton-X100, 0.5 g/L acetylpyridine adenine dinucleotide (APAD, Sigma), 200 μg/mL nitroblue tetrazolium (NBT; Sigma), 1 μg/mL phenozine ethosulfate (PES; Sigma)). Absorbance was then measured at 650 nm, transformed using the formula below, plotted against the logarithm of the concentrations, and a non-linear regression (log(inhibitor) vs. response, variable slope) was calculated using GraphPad Prism to assess the half-inhibitory […]
Growth inhibition % = (1 − average(sample)− average(uRBC)) ∗ 100 […]
The DMSO samples were also used to assess growth of parasite in the presence of 0.25 and 2.5 mM GlcN (normalised by DMSO in 0 mM GlcN). […]

T1 sequence (Q8I298 entry or part of it): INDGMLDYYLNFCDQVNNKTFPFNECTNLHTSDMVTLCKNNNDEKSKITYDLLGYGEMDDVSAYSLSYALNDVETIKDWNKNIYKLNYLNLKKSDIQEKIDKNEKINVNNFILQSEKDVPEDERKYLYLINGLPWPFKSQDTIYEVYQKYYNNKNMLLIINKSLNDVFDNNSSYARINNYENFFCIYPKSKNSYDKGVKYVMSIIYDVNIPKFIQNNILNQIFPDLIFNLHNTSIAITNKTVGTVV

For `CC(C)(Nc1ccc(Cl)c(S(=O)(=O)N2CCOCC2)c1)C(=O)Nc1ccc(F)c(Cl)c1` [W-991], the Kd ([1]; ITC, 25 °C, 90 µM PfSTART1 titrated into 10 µM compound, n = 2, ± SD) was 0.01 ± 0.007 µM, the ΔH ([1]; ITC, 25 °C, n = 2, ± SD) was -12.8 ± 0.1 kcal/mol and the “−TΔS” value ([1]; ITC, 25 °C, n = 2, ± SD) was 1.8 ± 0.6 kcal/mol. For the same compound, the “Differential Power DP_Y” value ([1]; DP_X 0.083333) was -0.000146, the “Differential Power DP_Y” value ([1]; DP_X 0.1) was 9.8e-5 and the “ΔH NDH_Y” value ([1]; NDH_X 0.104703) was -13.8427. The “ΔH NDH_Y” value ([1]; NDH_X 0.192876) was -12.6755, the EC50 [2] was greater than 0.2 µM and the “resistance of the line compared with 3D7” value [2] was “highly resistant”. The “(av-uRBC) / (DMSO-uRBC) x100” value ([2]; PopD-D7, 0.0762079 nM, biological replicate 1) was 96.5635, the “(av-uRBC) / (DMSO-uRBC) x100” value ([2]; PopD-D7, 0.0762079 nM, biological replicate 2) was 102.6 and the “(av-uRBC) / (DMSO-uRBC) x100” value ([2]; PopD-D7, 0.0762079 nM, biological replicate 3) was 87.8712. For the same compound, the “(av-uRBC) / (DMSO-uRBC) x100” value ([2]; PopD-D7, 0.228624 nM, biological replicate 1) was 100.291, the “(av-uRBC) / (DMSO-uRBC) x100” value ([2]; PopD-D7, 0.228624 nM, biological replicate 2) was 103.59 and the “(av-uRBC) / (DMSO-uRBC) x100” value ([2]; PopD-D7, 0.228624 nM, biological replicate 3) was 90.7443. The “(av-uRBC) / (DMSO-uRBC) x100” value ([2]; PopD-D7, 0.685871 nM, biological replicate 1) was 102.374, the “(av-uRBC) / (DMSO-uRBC) x100” value ([2]; PopD-D7, 0.685871 nM, biological replicate 2) was 101.183 and the “(av-uRBC) / (DMSO-uRBC) x100” value ([2]; PopD-D7, 0.685871 nM, biological replicate 3) was 89.0089. The “(av-uRBC) / (DMSO-uRBC) x100” value ([2]; PopD-D7, 2.05761 nM, biological replicate 1) was 98.4575, the “(av-uRBC) / (DMSO-uRBC) x100” value ([2]; PopD-D7, 2.05761 nM, biological replicate 2) was 102.962 and the “(av-uRBC) / (DMSO-uRBC) x100” value ([2]; PopD-D7, 2.05761 nM, biological replicate 3) was 86.5214. The “(av-uRBC) / (DMSO-uRBC) x100” value ([2]; PopD-D7, 6.17284 nM, biological replicate 1) was 97.3005, the “(av-uRBC) / (DMSO-uRBC) x100” value ([2]; PopD-D7, 6.17284 nM, biological replicate 2) was 103.791 and the “(av-uRBC) / (DMSO-uRBC) x100” value ([2]; PopD-D7, 6.17284 nM, biological replicate 3) was 87.2349. The “(av-uRBC) / (DMSO-uRBC) x100” value ([2]; PopD-D7, 18.5185 nM, biological replicate 1) was 94.5325, the “(av-uRBC) / (DMSO-uRBC) x100” value ([2]; PopD-D7, 18.5185 nM, biological replicate 2) was 103.019 and the “(av-uRBC) / (DMSO-uRBC) x100” value ([2]; PopD-D7, 18.5185 nM, biological replicate 3) was 88.7968. For the same compound, the “(av-uRBC) / (DMSO-uRBC) x100” value ([2]; PopD-D7, 55.5556 nM, biological replicate 1) was 87.2483, the “(av-uRBC) / (DMSO-uRBC) x100” value ([2]; PopD-D7, 55.5556 nM, biological replicate 2) was 102.262 and the “(av-uRBC) / (DMSO-uRBC) x100” value ([2]; PopD-D7, 55.5556 nM, biological replicate 3) was 77.42. For the same compound, the “(av-uRBC) / (DMSO-uRBC) x100” value ([2]; PopD-D7, conc. 166.667 nM, Biological replicate 1 (2021-10-25)) was 74.488, the “(av-uRBC) / (DMSO-uRBC) x100” value ([2]; PopD-D7, conc. 166.667 nM, Biological replicate 2 (2021-11-03)) was 97.8669 and the “(av-uRBC) / (DMSO-uRBC) x100” value ([2]; PopD-D7, conc. 166.667 nM, Biological replicate 3 (2021-11-11)) was 58.6579. For the same compound, the “(av-uRBC) / (DMSO-uRBC) x100” value ([2]; PopD-D7, conc. 500 nM, Biological replicate 1 (2021-10-25)) was 40.3034, the “(av-uRBC) / (DMSO-uRBC) x100” value ([2]; PopD-D7, conc. 500 nM, Biological replicate 2 (2021-11-03)) was 75.4488 and the “(av-uRBC) / (DMSO-uRBC) x100” value ([2]; PopD-D7, conc. 500 nM, Biological replicate 3 (2021-11-11)) was 31.855. The “Fold change compared to 3D7” value [2] was greater than 278 fold.
For `CN(C(=O)C(C)(C)Nc1ccc(Cl)c(S(=O)(=O)N2CCOCC2)c1)c1ccc(F)c(Cl)c1` [compound 4], the “interaction with PfSTART1(WT)” value ([1]; ITC) was “did not interact”, the EC50 [2] was 15.7 µM and the “resistance of the line compared with 3D7” value [2] was “No change in EC50”. The sample/DMSO ([2]; PopD-D7, 0.00152416 uM, biological replicate 3) was -12.3682, the sample/DMSO ([2]; PopD-D7, 0.00304832 uM, biological replicate 1) was -15.0464 and the sample/DMSO ([2]; PopD-D7, 0.00457247 uM, biological replicate 3) was -16.5856. It also gave a sample/DMSO ([2]; PopD-D7, 0.00914495 uM, biological replicate 1) of -23.9863, a sample/DMSO ([2]; PopD-D7, 0.0137174 uM, biological replicate 3) of -19.1403 and a sample/DMSO ([2]; PopD-D7, 0.0274348 uM, biological replicate 1) of -36.3947. It also gave a sample/DMSO ([2]; PopD-D7, 0.0411523 uM, biological replicate 3) of -26.0746, a sample/DMSO ([2]; PopD-D7, 0.078125 uM, biological replicate 2) of -26.6126 and a sample/DMSO ([2]; PopD-D7, 0.0823045 uM, biological replicate 1) of -40.9868. It also gave a sample/DMSO ([2]; PopD-D7, 0.123457 uM, biological replicate 3) of -30.0892, a sample/DMSO ([2]; PopD-D7, 0.15625 uM, biological replicate 2) of -24.0527 and a sample/DMSO ([2]; PopD-D7, 0.246914 uM, biological replicate 1) of -42.7943. It also gave a sample/DMSO ([2]; PopD-D7, 0.3125 uM, biological replicate 2) of -25.1299, a sample/DMSO ([2]; PopD-D7, 0.37037 uM, biological replicate 3) of -34.7932 and a sample/DMSO ([2]; PopD-D7, 0.625 uM, biological replicate 2) of -6.501. It also gave a sample/DMSO ([2]; PopD-D7, 0.740741 uM, biological replicate 1) of -38.9839, a sample/DMSO ([2]; PopD-D7, 1.11111 uM, biological replicate 3) of -37.8751 and a sample/DMSO ([2]; PopD-D7, 1.25 uM, biological replicate 2) of 3.536. The sample/DMSO ([2]; PopD-D7, 2.22222 uM, biological replicate 1) was -23.9863, the sample/DMSO ([2]; PopD-D7, 2.5 uM, biological replicate 2) was 14.2567 and the sample/DMSO ([2]; PopD-D7, 3.33333 uM, biological replicate 3) was -28.5888. It also gave a sample/DMSO ([2]; PopD-D7, 5 uM, biological replicate 2) of 26.676, a sample/DMSO ([2]; PopD-D7, 6.66667 uM, biological replicate 1) of 9.624 and a sample/DMSO ([2]; PopD-D7, 10 uM, biological replicate 2) of 49.8923. The sample/DMSO ([2]; PopD-D7, 10 uM, biological replicate 3) was 18.8159, the sample/DMSO ([2]; PopD-D7, 20 uM, biological replicate 1) was 64.3869 and the sample/DMSO ([2]; PopD-D7, 20 uM, biological replicate 2) was 82.347. For the same compound, the “Fold change compared to 3D7” value [2] was 1.6 fold.

Reference: article PMC11189555, “Aryl amino acetamides prevent Plasmodium falciparum ring development via targeting the lipid-transfer protein PfSTART1” (Nature Communications, 2024)
